Here are results for ten compounds from US7790725B2, “Thiazolidine derivatives and medicinal use thereof” (Mitsubishi Tanabe Pharma Corporation, priority 2001, dated 2010).

One experiment concerns the target T1, Human plasma DPP-IV (Homo sapiens, UniProt P27487).
T1 construct: Human plasma DPP-IV; from tissue; host or cells: human plasma
Nature of the experiment: Plasma DPP-IV inhibitory activity, fluorescence assay with Gly-Pro-MCA (human plasma). The experiment is classed as biochemical. Particulars: for IC50: human plasma (10-fold dilution), Gly-Pro-MCA substrate, room temperature, 60 min. The protocol:
(§1) The plasma DPP-IV inhibitory activity of human and rat was measured according to the fluorescence assay method and under the conditions of Table 10. As a DPP-IV specific fluorescent substrate, Gly-Pro-MCA (Peptide Institute, Inc.) was used, and reaction solutions having the following compositions containing various concentrations of the test substance were incubated at room temperature for 60 min and the fluorescence intensity (Excitation 360 nm/Emission 465 nm) measured (SPECTRA FLUOR, Tecan Group, Ltd.) was taken as the DPP-IV activity.
(§2) The inhibitory ratio to a solvent addition group was calculated and IC50 value was determined by logistic analysis.

The next experiment has as its target T2, Rat plasma DPP-IV (Rattus norvegicus, UniProt P14740).
T2 construct: Rat plasma DPP-IV; from tissue; host or cells: rat plasma
The experiment can be described thus: Plasma DPP-IV inhibitory activity, fluorescence assay with Gly-Pro-MCA (rat plasma). Particulars: rat plasma (10-fold dilution), Gly-Pro-MCA substrate, room temperature, 60 min. The experiment is classed as biochemical. The protocol: as §1, §2

Counter-ions that a name gives are not always drawn.

T1 sequence (P27487 39-766 limits assumed): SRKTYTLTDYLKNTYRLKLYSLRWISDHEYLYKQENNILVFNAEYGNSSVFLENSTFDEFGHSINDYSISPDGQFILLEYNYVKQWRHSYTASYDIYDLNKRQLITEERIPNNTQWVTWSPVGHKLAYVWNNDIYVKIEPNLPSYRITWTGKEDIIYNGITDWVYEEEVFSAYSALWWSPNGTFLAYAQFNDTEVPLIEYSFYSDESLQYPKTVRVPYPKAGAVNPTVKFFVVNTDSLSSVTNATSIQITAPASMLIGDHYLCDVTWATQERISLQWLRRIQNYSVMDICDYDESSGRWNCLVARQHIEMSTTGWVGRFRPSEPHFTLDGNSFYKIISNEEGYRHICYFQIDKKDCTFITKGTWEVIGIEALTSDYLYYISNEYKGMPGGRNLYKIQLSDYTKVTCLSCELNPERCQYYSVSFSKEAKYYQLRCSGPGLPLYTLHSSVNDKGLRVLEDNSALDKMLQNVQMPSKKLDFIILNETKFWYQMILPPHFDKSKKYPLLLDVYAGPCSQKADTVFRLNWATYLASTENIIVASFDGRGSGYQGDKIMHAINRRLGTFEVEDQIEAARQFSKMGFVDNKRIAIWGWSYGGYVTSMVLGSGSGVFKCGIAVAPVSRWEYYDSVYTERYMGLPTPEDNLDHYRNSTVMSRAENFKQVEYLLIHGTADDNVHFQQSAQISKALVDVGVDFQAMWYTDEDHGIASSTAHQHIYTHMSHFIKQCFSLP
T2 sequence (P14740 38-767 limits assumed): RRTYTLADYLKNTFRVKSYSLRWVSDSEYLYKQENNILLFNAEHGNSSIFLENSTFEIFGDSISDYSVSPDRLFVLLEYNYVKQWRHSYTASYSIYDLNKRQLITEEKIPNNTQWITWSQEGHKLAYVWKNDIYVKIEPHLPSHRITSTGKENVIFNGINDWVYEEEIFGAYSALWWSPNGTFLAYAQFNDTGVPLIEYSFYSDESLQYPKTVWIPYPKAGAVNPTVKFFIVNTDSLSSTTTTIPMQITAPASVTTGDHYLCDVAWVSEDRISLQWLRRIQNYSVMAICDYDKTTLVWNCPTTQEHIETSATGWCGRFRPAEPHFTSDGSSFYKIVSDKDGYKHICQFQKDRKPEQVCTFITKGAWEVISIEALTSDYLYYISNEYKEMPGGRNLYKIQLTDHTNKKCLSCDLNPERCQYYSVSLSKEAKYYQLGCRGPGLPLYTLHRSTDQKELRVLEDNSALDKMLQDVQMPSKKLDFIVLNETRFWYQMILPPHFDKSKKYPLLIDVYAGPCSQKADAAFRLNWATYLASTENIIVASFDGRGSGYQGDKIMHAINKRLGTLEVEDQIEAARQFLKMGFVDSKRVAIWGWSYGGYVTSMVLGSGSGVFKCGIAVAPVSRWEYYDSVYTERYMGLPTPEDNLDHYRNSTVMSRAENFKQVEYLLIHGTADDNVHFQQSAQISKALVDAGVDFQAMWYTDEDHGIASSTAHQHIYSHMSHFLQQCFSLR

Take `Cc1cc(C)n(C2CCN([C@@H]3CN[C@H](C(=O)N4CCSC4)C3)CC2)n1` [Example 56, 3-{(2S,4S)-4-[4-(3,5-dimethyl-1-pyrazolyl)piperidino]-2-pyrrolidinylcarbonyl}-1,3-thiazolidine trihydrochloride]: the half-inhibitory concentration (IC50) against Human plasma DPP-IV was 0.91 nM; against Rat plasma DPP-IV, 1.17 nM.
The matching figures for `CS(=O)(=O)c1ccc(NCCCC[C@H](N)C(=O)N2CCSC2)cc1` [Example 7, 3-[(S)-2-amino-6-(4-methanesulfonylphenylamino)hexanoyl]-1,3-thiazolidine]: 15 nM and 13 nM.
The matching figures for `N[C@@H](CCCCNc1ccc([N+](=O)[O-])cn1)C(=O)N1CCSC1` [Example 14, 3-[(S)-2-amino-6-(5-nitropyridin-2-ylamino)hexanoyl]-1,3-thiazolidine]: 29 nM and 18 nM.
Regarding `NCCCC[C@H](N)C(=O)N1CCSC1.O=C(O)C(F)(F)F.O=C(O)C(F)(F)F` [comparison compound 1, 3-L-lysyl-1,3-thiazolidine ditrifluoroacetate, reference compound], the IC50 was 856 nM on Human plasma DPP-IV and 719 nM on Rat plasma DPP-IV. The “plasma DPP-IV inhibitory activity (assessment in words)” value on Human plasma DPP-IV (statement in the text on Experimental Example 1, species not distinguished) is “sufficient”.
In the case of `N#Cc1ccc(NCCCC[C@H](N)C(=O)N2CCSC2)nc1` [Example 6, 3-[(S)-2-amino-6-(5-cyanopyridin-2-ylamino)hexanoyl]-1,3-thiazolidine dihydrochloride], the half-inhibitory concentration (IC50) on Human plasma DPP-IV stood at 34 nM; against Rat plasma DPP-IV, 29 nM.
Take `N#Cc1ccc(NCCCC[C@H](N)C(=O)N2CCSC2)c([N+](=O)[O-])c1` [Example 5, 3-[(S)-2-amino-6-(4-cyano-2-nitrophenylamino)hexanoyl]-1,3-thiazolidine]: the values for the concentration for half-maximal inhibition (IC50) on Human plasma DPP-IV and against Rat plasma DPP-IV were 28 nM and 19 nM, respectively.
The matching figures for `O=C([C@@H]1C[C@H](N2CCN(c3cc(C(F)(F)F)nc4ccc(O)cc34)CC2)CN1)N1CCSC1` [Example 48, 3-{(2S,4S)-4-[4-(2-trifluoromethyl-6-hydroxy-4-quinolyl)-1-piperazinyl]-2-pyrrolidinylcarbonyl}-1,3-thiazolidine dihydrochloride]: 0.25 nM and 0.37 nM.
On the same counts, the results for `N[C@@H](CCCCN1CCN(c2cc(C(F)(F)F)nc3ccccc23)CC1)C(=O)N1CCSC1` [Example 28, 3-{(S)-2-amino-6-[4-(2-trifluoromethyl-4-quinolyl)piperazin-1-yl]hexanoyl}-1,3-thiazolidine dihydrochloride] are 35 nM and 49 nM.
On the same counts, the results for `N#Cc1ccc(NCCCC[C@H](N)C(=O)N2CCSC2)cc1C(F)(F)F` [Example 13, 3-{(S)-2-amino-6-[4-cyano-3-(trifluoromethyl)phenylamino]hexanoyl}-1,3-thiazolidine] are 66 nM and 40 nM.
Consider `COc1cc(OC)c2nc(C(F)(F)F)cc(N3CCN([C@@H]4CN[C@H](C(=O)N5CCSC5)C4)CC3)c2c1` [Example 55, 3-{(2S,4S)-4-[4-(2-trifluoromethyl-6,8-dimethoxy-4-quinolyl)-1-piperazinyl]-2-pyrrolidinylcarbonyl}-1,3-thiazolidine dihydrochloride], for which the results for the IC50 against Human plasma DPP-IV and on Rat plasma DPP-IV were 0.24 nM and 0.3 nM, respectively.
